Consider 8 compounds from patent US20070105924A1 (priority 2005, published 2007).

By kinact/KI is commonly meant the maximal inactivation rate divided by the concentration that gives half of it. One may read the kinact as the rate constant of inactivation at saturating inhibitor. As usually defined, the pKa is the pH at which an ionisable group is half protonated. One may read the IC50 as the midpoint of a concentration-inhibition curve.

The target in data set [1] is T1, GABA-AT (Sus scrofa, UniProt P80147). The experiment in a line: Time-dependent inhibition of GABA-AT (Kitz and Wilson replot). Type of data set: biochemical, pig. The settings on record: for time-dependent inhibition of GABA-AT (in words): 9 and 10 compared with 8 at the same concentration. On the procedure: Aliquots (20 μL) were withdrawn at timed intervals and were added immediately to the assay solution (575 μL) followed by the addition of excess SSDH (5 μL). The reaction rates were measured by a UV-vis spectrophotometer at 340 nm. […] A Kitz and Wilson replot was used to determine the kinetic constants kinact and KI, as referenced above.
T1 sequence (P80147 29-500): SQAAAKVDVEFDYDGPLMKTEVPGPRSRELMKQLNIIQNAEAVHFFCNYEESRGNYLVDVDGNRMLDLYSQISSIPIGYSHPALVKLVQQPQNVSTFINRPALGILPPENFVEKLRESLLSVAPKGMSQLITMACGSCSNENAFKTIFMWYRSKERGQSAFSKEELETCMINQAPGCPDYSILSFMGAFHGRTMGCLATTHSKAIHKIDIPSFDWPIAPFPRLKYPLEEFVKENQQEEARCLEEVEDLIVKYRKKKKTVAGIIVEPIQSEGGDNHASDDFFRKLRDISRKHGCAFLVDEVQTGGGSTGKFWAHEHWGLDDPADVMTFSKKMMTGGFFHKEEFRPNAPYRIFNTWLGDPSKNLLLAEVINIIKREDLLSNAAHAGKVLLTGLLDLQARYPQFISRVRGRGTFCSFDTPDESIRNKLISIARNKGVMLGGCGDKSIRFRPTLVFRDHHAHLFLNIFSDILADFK

Data set [2] deals with T1, GABA-AT. The experiment in a line: Preliminary substrate activity test with [14C]-labeled α-ketoglutarate. The data set is classed as biochemical, pig. As to conditions: for Converted α-KG: incubation time 48 h, GABA-AT 0.7 μM, substrate 2.5 mM, α-KG 2.9 mM; for substrate activity for GABA-AT (in words): preliminary test, 48 h incubation. The text has this: Tetrazole derivative 5 was the most efficient of the synthesized substrates. The tetrazole group was the best bioisostere for the carboxylic acid group in this series of compounds tested.

For data set [3] the following is noted: isosteric functionality compared with a carboxylic group; cited from earlier work.
Data set [4] concerns the target T1, GABA-AT. The experiment in a line: Time-independent inhibition of GABA-AT. The data set is classed as biochemical, pig. The settings on record: 1-10 mM inhibitor, 25° C., read-out: estimated IC50. The text has this: The percentage of remained enzyme activity was obtained by comparison to that of an untreated enzyme control. The logarithm of the percentage of remained activity is plotted versus the concentration of the inhibitors to calculate IC50 values.

Setting [5] is: time-dependent inhibition, 25 ° C., pH 8.5.

Molecules are shown by their SMILES.

For `C=CC(N)CCc1nnn[nH]1` (stereo not drawn) [Compound 8, 1H-Tetrzole-5-(α-vinyl-propanamine)], the “time-dependent inhibition of GABA-AT (in words)” value (“time-dependent inhibition” below) at GABA-AT [1] is “showed time-dependent inhibition”. Further, the “times less efficient (kinact/KI) than vigabatrin” value at GABA-AT [1] (relative to racemic vigabatrin) is 6.6 times. Moreover, the kinact/KI at GABA-AT [1] (time-dependent inhibition) was 2.17 M⁻¹ s⁻¹. At GABA-AT [1] (setting [5]), the Ki came to 5.6 mM and the kinact was 0.0122 s⁻¹.
Take `CS(=O)(=O)NC(=O)CCN` [Compound 3, Methyl b-alanylsulfonamide]: on GABA-AT [2], the “Converted α-KG” value turned out to be 6.4% and the “substrate activity for GABA-AT (in words)” value (“substrate activity” for short) is “substrates for GABA-AT”. Moreover, the pKa entry in data set [3] is “comparable to that of a carboxylic acid”.
For `NCc1ccc2[nH]ccc2c1` [Compound 4, Indole-5-methanamine], on GABA-AT [2], the “Converted α-KG” value was 0.1% and the “substrate activity” value is reported as “little or no substrate activity”.
In the same order, the values of `NCCc1nnn[nH]1` [Compound 5, 1H-Tetrazole-5-ethanamine] are 20% and “substrates for GABA-AT”.
Turning to `C=CC(N)CCc1nnnn1C` (stereo not drawn) [Compound 10, 1-methyl-1H-tetrazole-5-(α-vinyl-propanamine)], at GABA-AT [4], the IC50 is greater than 10 mM. Besides, the “time-dependent inhibition” value on GABA-AT [1] was “Neither 9 nor 10 showed time-dependent inhibition”.
As to `COC(=O)NC(=O)CCN` [Compound 2, Methyl β-alanylcarbamate], at GABA-AT [2], the “Converted α-KG” value came to 1.3% and the “substrate activity” value is given as “substrates for GABA-AT”. Besides, the pKa in data set [3] is given as roughly 8.
Take `NCCCC(=O)O` [GABA, γ-aminobutyric acid, reference compound]: the “Converted α-KG” value at GABA-AT [2] came to 25%.
Turning to `C=CC(N)CCc1nnn(C)n1` (stereo not drawn) [Compound 9, 2-Methyl-2H-tetrazole-5-(α-vinyl-propanamine)], at GABA-AT [4], the IC50 was greater than 10 mM. In addition, on GABA-AT [1], the “time-dependent inhibition” value is reported as “Neither 9 nor 10 showed time-dependent inhibition”.
